Reference: ChEMBL document CHEMBL4007425, “Drug Repurposing of Histone Deacetylase Inhibitors That Alleviate Neutrophilic Inflammation in Acute Lung Injury and Idiopathic Pulmonary Fibrosis via Inhibiting Leukotriene A4 Hydrolase and Blocking LTB4 Biosynthesis” (J Med Chem, 2017)
The source made the active and inactive calls. The rule behind the calls is not given here.

Legend:
[1] = tested on: Mus musculus; experiment: Anti-inflammatory activity in BLM-induced C57BL/6 mouse model of acute lung neutrophilic inflammation assessed as reduction in macrophage number in BALF at 10 and 25 mg/kg, ip qd for 7 days post BLM challenge measured on day 7; format: functional, organism-based
[2] = tested on: Mus musculus; experiment: Protection against BLM-induced lung fibrosis in C57BL/6 mouse assessed as TGF-beta1 level at 10 and 25 mg/kg, ip qd for 7 days post BLM challenge measured on day 14 by qRT-PCR method; format: functional, organism-based
[3] = tested on: Mus musculus; experiment: Anti-inflammatory activity in BLM-induced C57BL/6 mouse model of acute lung neutrophilic inflammation assessed as protein concentration in BALF at 25 mg/kg, ip qd for 7 days post BLM challenge measured on day 7 (reference value: 2.39 mg/ml); format: functional
[4] = tested on: Mus musculus; experiment: Protection against BLM-induced lung fibrosis in C57BL/6 mouse assessed as reduction in deposition of collagen fibers at 10 and 25 mg/kg, ip qd for 7 days post BLM challenge measured on day 7 by Massons trichrome staining based method; format: functional, organism-based
[5] = tested on: Mus musculus; experiment: Protection against BLM-induced lung fibrosis in C57BL/6 mouse assessed as TGF-beta1 level at 25 mg/kg, ip qd for 7 days post BLM challenge measured on day 14 by ELISA (reference value: 99.30 pg/ml); format: functional
[6] = tested on: Mus musculus; experiment: Anti-inflammatory activity in LPS-induced C57BL/6 mouse model of acute lung injury assessed as reduction in protein concentration in BALF at 10 to 50 mg/kg, ip pretreated for 1 hr followed LPS challenge measured after 24 hrs; format: functional, organism-based
[7] = tested on: Mus musculus; experiment: Anti-inflammatory activity in LPS-induced C57BL/6 mouse model of acute lung injury assessed as reduction in IL-1beta mRNA level pretreated intraperitoneally for 1 hr followed LPS challenge after 24 hrs by qRT-PCR method; format: functional
[8] = tested on: Mus musculus; experiment: Anti-inflammatory activity in LPS-induced C57BL/6 mouse model of acute lung injury assessed as intact alveolar structure at 10 to 50 mg/kg, ip pretreated for 1 hr followed LPS challenge measured after 24 hrs by hematoxylin and eosin staining based microscopy; format: functional, organism-based
[9] = tested on: Mus musculus; experiment: Anti-inflammatory activity in BLM-induced C57BL/6 mouse model of acute lung neutrophilic inflammation assessed as reduction in total cell number in BALF at 25 and 50 mg/kg, ip qd for 7 days post BLM challenge measured on day 7; format: functional, organism-based
[10] = tested on: Mus musculus; experiment: Protection against BLM-induced lung fibrosis in C57BL/6 mouse assessed as TGF-beta1 level at 50 mg/kg, ip qd for 7 days post BLM challenge measured on day 14 by ELISA (reference value: 99.30 pg/ml); format: functional
[11] = tested on: Mus musculus; experiment: Protection against BLM-induced lung fibrosis in C57BL/6 mouse assessed as TGF-beta1 level at 25 and 50 mg/kg, ip qd for 7 days post BLM challenge measured on day 7 by qRT-PCR method; format: functional, organism-based
[12] = tested on: Mus musculus; experiment: Anti-inflammatory activity in LPS-induced C57BL/6 mouse model of acute lung injury assessed as reduction in pulmonary edema by measuring lung wet and dry ratio at 10 to 50 mg/kg, ip pretreated for 1 hr followed LPS challenge after 24 hrs; format: functional, organism-based
[13] = tested on: Mus musculus; experiment: Protection against BLM-induced lung fibrosis in C57BL/6 mouse assessed as TGF-beta1 level at 50 mg/kg, ip qd for 7 days post BLM challenge measured on day 7 by ELISA (reference value: 75.39 pg/ml); format: functional
[14] = tested on: Mus musculus; experiment: Anti-inflammatory activity in BLM-induced C57BL/6 mouse model of acute lung neutrophilic inflammation assessed as MPO activity at 50 mg/kg, ip qd for 7 days post BLM challenge measured on day 7 (reference value: 0.98 U/g); format: functional
[15] = tested on: Mus musculus; experiment: Anti-inflammatory activity in LPS-induced C57BL/6 mouse model of acute lung injury assessed as reduction in total number of leucocytes in BALF at 10 to 50 mg/kg, ip pretreated for 1 hr followed LPS challenge measured after 24 hrs; format: functional, organism-based

CN(C)c1ccc(C(=O)NCCCCCCC(=O)NO)cc1
Activity [1]: Active | Activity [2]: Active | Activity [3]: 1.92 mg/mL | Activity [4]: Active | Activity [5]: 38.22 pg/mL

O=C(CCCCCCC(=O)Nc1ccccc1)NO [VORINOSTAT]
Activity [6]: Active | Activity [7]: Dose-dependent effect | Activity [8]: Active | Activity [9]: Active | Activity [10]: 49.74 pg/mL | Activity [11]: Active | Activity [12]: Active | Activity [13]: 34.09 pg/mL | Activity [14]: 0.67 U/g | Activity [15]: Active
